We go through six molecules from patent publication US7507732B2, “Cyclopentapyridine and tetrahydroquinoline derivatives” (Pfizer Inc., priority 2005, dated 2009).

Series [1] addresses T1, human 5HT2c receptor (Homo sapiens, UniProt P28335).
T1 construct: expressed in transfected cells; host or cells: Swiss 3T3 mouse cells (ATCC)
T1 sequence (P28335 33-458): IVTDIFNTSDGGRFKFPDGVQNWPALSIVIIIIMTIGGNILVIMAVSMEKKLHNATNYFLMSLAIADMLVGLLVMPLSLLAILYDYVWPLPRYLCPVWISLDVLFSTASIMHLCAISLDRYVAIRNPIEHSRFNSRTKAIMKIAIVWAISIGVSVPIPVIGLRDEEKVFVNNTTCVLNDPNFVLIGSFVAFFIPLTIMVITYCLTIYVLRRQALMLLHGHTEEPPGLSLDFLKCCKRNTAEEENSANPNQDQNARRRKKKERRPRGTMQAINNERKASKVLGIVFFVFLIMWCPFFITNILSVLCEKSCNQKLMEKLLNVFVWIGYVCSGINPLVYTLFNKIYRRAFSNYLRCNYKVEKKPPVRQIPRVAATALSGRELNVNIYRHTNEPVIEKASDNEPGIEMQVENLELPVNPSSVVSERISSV
The experiment in a line: 5HT2c Binding Procedure (competition binding against 3H-5HT, membranes of transfected Swiss 3T3 mouse cells). On the procedure: Affinity of compounds at the serotonin 5HT2c binding site is determined by competition binding in Swiss 3T3 mouse cells (available from the American Type Culture Collection (ATCC), Manassas, Va.) transfected with the human 5HT2c receptor against ^3H-5HT.

Series [2] deals with T2, rat 5HT2a receptor (Rattus norvegicus, UniProt P14842).
T2 construct: expressed in transfected cells; host or cells: NIH 3T3 mouse cells
Description: 5HT2a Binding Procedure (competition binding using 125I-DOI, membranes of transfected NIH 3T3 mouse cells). As to the method: Affinity of compounds at the serotonin 5HT2a binding site is determined by competition binding in NIH 3T3 mouse cells transfected with the rat 5HT2a receptor using 125I-DOI.

In series [3] the target is human 5HT2b receptor (Homo sapiens, UniProt P41595). The experiment in a line: 5HT2b Binding Procedure (competition binding with 3H-LSD, CHO cell membranes).
Description: Affinity of compounds for the human 5HT2b receptor is determined by competition binding using membranes prepared from Chinese hamster ovary (CHO) cells containing the tetracycline operator (Flp-In Trex system—Invitrogen) that were engineered to express the human 5HT2b receptor. […] The supernatant was removed and discarded, while the pellet was resuspended in homogenization buffer, then centrifuged for 20 minutes at 25,000×g at 4° C. The supernatant was discarded while the pellet (containing membranes) was resuspended in homogenization buffer, and the membranes were aliquoted and frozen at −80° C. The binding assay was set up in 96-well plates, which contained 2 μl of test compound (in 100% DMSO) then 100 μl of ^3H-LSD (final concentration=3 nM) diluted in assay buffer (50 mM Tris pH 7.4, 4 mM CaCl2, 0.1% Ascorbic Acid), followed by the addition of 100 μl of membranes (approximately 15 μg membrane protein, diluted in assay buffer) from 5HT2b -expressing cells. 1 μM mianserin was used to calculate non-specific binding. The assay plates were incubated at 37° C. for 60 minutes, then the assay was terminated by filtration onto 96-well UniFilter™ plates (with GF/C filters—from PerkinElmer™) which were pre-soaked in 0.3% PEI. The filterplates were washed 2× with cold wash buffer (50 mM Tris, pH 7.4), then dried, scintillation fluid added and radioactivity determined in a Wallac Microbeta™ plate scintillation counter (PerkinElmer™). Concentration-response curves of the % inhibition of specific binding by test compounds versus the test compound concentration, was used to determine the IC50 for each compound and the Ki value calculated based on the Cheng-Prusoff equation (Ki=IC50/(1+(L/Kd)), where L is the concentration of the radioligand used in the binding assay and the Kd is based on previous saturation studies with the radioligand.
The conditions of series [4]: cited from earlier work.
Setting [5] is: receptor binding, 5HT2c, read-out: 2cKi.
Where [6] appears, read: receptor binding, 5HT2a, read-out: 2aKi.

Read-outs that look alike come from different tables or passages of the source.

T2 sequence (P14842 whole entry): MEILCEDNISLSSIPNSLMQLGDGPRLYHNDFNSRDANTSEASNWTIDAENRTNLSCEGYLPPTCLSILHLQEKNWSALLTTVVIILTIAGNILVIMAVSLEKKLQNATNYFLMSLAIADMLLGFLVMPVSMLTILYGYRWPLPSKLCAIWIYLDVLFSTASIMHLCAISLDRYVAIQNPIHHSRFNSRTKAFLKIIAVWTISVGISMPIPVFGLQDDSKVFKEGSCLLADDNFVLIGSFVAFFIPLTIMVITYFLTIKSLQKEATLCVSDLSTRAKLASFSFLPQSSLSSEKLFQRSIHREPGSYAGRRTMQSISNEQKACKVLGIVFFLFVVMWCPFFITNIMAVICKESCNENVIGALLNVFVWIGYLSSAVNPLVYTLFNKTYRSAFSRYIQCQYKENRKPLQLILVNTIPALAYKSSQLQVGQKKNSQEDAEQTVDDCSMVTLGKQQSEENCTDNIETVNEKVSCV
human 5HT2b receptor, sequence (P41595 whole entry): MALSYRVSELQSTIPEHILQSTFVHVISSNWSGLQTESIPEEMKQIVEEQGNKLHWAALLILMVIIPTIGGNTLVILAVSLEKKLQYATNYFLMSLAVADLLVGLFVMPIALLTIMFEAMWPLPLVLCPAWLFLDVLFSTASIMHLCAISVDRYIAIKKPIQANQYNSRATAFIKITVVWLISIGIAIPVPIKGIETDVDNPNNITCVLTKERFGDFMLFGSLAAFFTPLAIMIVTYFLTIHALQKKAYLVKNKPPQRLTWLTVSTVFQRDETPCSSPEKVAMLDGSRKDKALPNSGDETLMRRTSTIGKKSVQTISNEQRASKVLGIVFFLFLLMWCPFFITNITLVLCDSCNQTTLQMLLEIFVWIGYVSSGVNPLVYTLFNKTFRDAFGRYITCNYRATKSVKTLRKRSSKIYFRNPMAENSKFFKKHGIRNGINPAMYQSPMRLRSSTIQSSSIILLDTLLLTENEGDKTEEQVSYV

Take `Fc1ccc(F)c(CO[C@H]2CCc3ccc(N4CCNCC4)nc32)c1` [Example 1A-37, (7S)-7-[(2,5-difluorobenzyl)oxy]-2-piperazin-1-yl-6,7-dihydro-5H-cyclopenta[b]pyridine]: the Ki came out at 26.6 nM in series [1], 25 nM in series [2] and 159 nM in series [3].
As for `C[C@@H]1CNCCN1c1ccc2c(n1)[C@@H](OCc1cccc(C#N)c1)CC2` [Example 2A-4, 3-[({(7S)-2-[(2R)-2-methylpiperazin-1-yl]-6,7-dihydro-5H-cyclopenta[b]pyridin-7-yl}oxy)methyl]benzonitrile], the Ki in series [1] (setting [5]) came to 6.9 nM; in series [2] (setting [6]), 33.9 nM; in series [3], 803 nM.
The matching figures for `Fc1cc2c(c(O[C@H]3CCc4ccc(N5CCNCC5)nc43)c1)CCC2` [Example 3A-76, (7S)-7-[(6-fluoro-2,3-dihydro-1H-inden-4-yl)oxy]-2-piperazin-1-yl-6,7-dihydro-5H-cyclopenta[b]pyridine]: 3 nM, 2.8 nM and 53 nM.
For the molecule `c1ccc2c(O[C@H]3CCc4ccc(N5CCNCC5)nc43)cncc2c1` [Example 3A-83, 4-{[(7S)-2-piperazin-1-yl-6,7-dihydro-5H-cyclopenta[b]pyridin-7-yl]oxy}isoquinoline], the Ki in series [1] turned out to be 17.9 nM; in series [2] it was 46.8 nM; in series [3] (read-out: 2bKi, receptor binding, 5HT2b), 145 nM.
As for `C[C@@H]1CNCCN1c1ccc2c(n1)[C@@H](Oc1ccccc1F)CC2` [Example 4A-4], the Ki was found to be 5.11 nM in series [1] (setting [5]), 4.14 nM in series [2] (setting [6]) and 21 nM in series [3].
Take `O=C1Cc2cc(CCN3CCN(c4nsc5ccccc45)CC3)c(Cl)cc2N1` [Ziprasidone, 5-[2-[4-(1,2-benzisothiazol-3-yl)piperazin-1-yl]ethyl]-6-chloroindolin-2-one]: in series [4] (in vivo), the half-life was 6 to 7 h and the protein binding result is “extensive”. Also, the Oral bioavailability entry in series [4] (taken with food) is given as “approximately 60%”.

In general, half-life refers to the time needed for the level to fall by half in the phase considered.
